Test results reported in patent US10792289B2 (Horizon Orphan LLC, priority 2009, dated 2020).

Test system: P. aeruginosa
Assay: Phase 2 study: P. aeruginosa density in sputum
Assay type: in vivo, Pseudomonas aeruginosa
Conditions: for Reduction in P. aeruginosa density in sputum: median Day 1 to Day 28
Protocol: The following dosage regimens (as nebulizer loaded doses) were evaluated: 120 mg QD (daily); 240 mg QD (daily); and 240 mg BID (twice daily).
Patients were assessed on Day 1, 7, 14, and 28, and then up to 28 days after completion of study drug, namely, Days 42 and 56. The end of the study was defined as the last visit of the last patient.
Efficacy was evaluated by microbiologic assessment of sputum samples, time to need for anti-pseudomonal antimicrobials, the Cystic Fibrosis Questionaire-Revised (CFQ-R), and pulmonary function tests. […] Pair-wise comparisons between all the treatment arms were conducted as secondary analyses.

[1] = EE, 120 mg QD, Baseline to Day 7
[2] = EE, 120 mg QD, Baseline to Day 14
[3] = EE, 120 mg QD, Baseline to Day 28
[4] = EE, 240 mg BID, Baseline to Day 7
[5] = EE, 240 mg BID, Baseline to Day 14
[6] = EE, 240 mg BID, Baseline to Day 28
[7] = EE, 240 mg QD, Baseline to Day 7
[8] = EE, 240 mg QD, Baseline to Day 14
[9] = EE, 240 mg QD, Baseline to Day 28
[10] = EE, combined 240 mg QD and BID, Baseline to Day 7
[11] = EE, combined 240 mg QD and BID, Baseline to Day 14
[12] = EE, combined 240 mg QD and BID, Baseline to Day 28
[13] = EE, combined 240 mg QD and BID, Day 1
[14] = EE, combined 240 mg QD and BID, Day 7
[15] = EE, combined 240 mg QD and BID, Day 14
[16] = EE, combined 240 mg QD and BID, Day 28
[17] = MITT, 120 mg QD, Baseline to Day 7
[18] = MITT, 120 mg QD, Baseline to Day 14
[19] = MITT, 120 mg QD, Baseline to Day 28

SMILES: C[C@H]1COc2c(N3CCN(C)CC3)c(F)cc3c(=O)c(C(=O)O)cn1c23 [Levofloxacin, levofloxacin]
- Change in P. aeruginosa density, mean (SD) [1]: −0.76 (1.263) log10 CFU sputum
- Change in P. aeruginosa density, median [1]: −0.58 log10 CFU sputum
- Change in P. aeruginosa density, mean (SD) [2]: −0.10 (1.240) log10 CFU sputum
- Change in P. aeruginosa density, median [2]: 0.00 log10 CFU sputum
- Change in P. aeruginosa density, mean (SD) [3]: −0.31 (1.050) log10 CFU sputum
- Change in P. aeruginosa density, median [3]: −0.20 log10 CFU sputum
- P. aeruginosa density, median (EE, 120 mg QD, Day 1): 8.17 log10 CFU sputum
- P. aeruginosa density, mean (SD) (EE, 120 mg QD, Day 7): 6.64 (1.818) log10 CFU sputum
- P. aeruginosa density, median (EE, 120 mg QD, Day 7): 6.86 log10 CFU sputum
- P. aeruginosa density, mean (SD) (EE, 120 mg QD, Day 14): 7.32 (1.643) log10 CFU sputum
- P. aeruginosa density, median (EE, 120 mg QD, Day 14): 8.00 log10 CFU sputum
- P. aeruginosa density, mean (SD) (EE, 120 mg QD, Day 28): 7.25 (1.431) log10 CFU sputum
- P. aeruginosa density, median (EE, 120 mg QD, Day 28): 7.78 log10 CFU sputum
- Reduction in P. aeruginosa density in sputum (EE, 120 mg QD): approximately 59%
- Change in P. aeruginosa density, mean (SD) [4]: −1.03 (1.921) log10 CFU sputum
- Change in P. aeruginosa density, median [4]: −0.88 log10 CFU sputum
- Change in P. aeruginosa density, mean (SD) [5]: −0.83 (1.901) log10 CFU sputum
- Change in P. aeruginosa density, median [5]: −0.91 log10 CFU sputum
- Change in P. aeruginosa density, mean (SD) [6]: −0.74 (1.488) log10 CFU sputum
- Change in P. aeruginosa density, median [6]: −0.68 log10 CFU sputum
- P. aeruginosa density, mean (SD) (EE, 240 mg BID, Day 1): 7.26 (1.433) log10 CFU sputum
- P. aeruginosa density, median (EE, 240 mg BID, Day 1): 7.84 log10 CFU sputum
- P. aeruginosa density, mean (SD) (EE, 240 mg BID, Day 7): 6.23 (1.850) log10 CFU sputum
- P. aeruginosa density, median (EE, 240 mg BID, Day 7): 6.52 log10 CFU sputum
- P. aeruginosa density, mean (SD) (EE, 240 mg BID, Day 14): 6.43 (1.725) log10 CFU sputum
- P. aeruginosa density, median (EE, 240 mg BID, Day 14): 6.81 log10 CFU sputum
- P. aeruginosa density, mean (SD) (EE, 240 mg BID, Day 28): 6.65 (1.440) log10 CFU sputum
- P. aeruginosa density, median (EE, 240 mg BID, Day 28): 6.40 log10 CFU sputum
- Reduction in P. aeruginosa density in sputum (EE, 240 mg BID): approximately 96%
- Change in P. aeruginosa density, mean (SD) [7]: −0.25 (1.789) log10 CFU sputum
- Change in P. aeruginosa density, median [7]: −0.18 log10 CFU sputum
- Change in P. aeruginosa density, mean (SD) [8]: −0.47 (1.905) log10 CFU sputum
- Change in P. aeruginosa density, median [8]: −0.11 log10 CFU sputum
- Change in P. aeruginosa density, mean (SD) [9]: −0.38 (1.780) log10 CFU sputum
- Change in P. aeruginosa density, median [9]: −0.52 log10 CFU sputum
- P. aeruginosa density, mean (SD) (EE, 240 mg QD, Day 1): 7.16 (1.597) log10 CFU sputum
- P. aeruginosa density, median (EE, 240 mg QD, Day 1): 7.97 log10 CFU sputum
- P. aeruginosa density, mean (SD) (EE, 240 mg QD, Day 7): 6.94 (1.783) log10 CFU sputum
- P. aeruginosa density, median (EE, 240 mg QD, Day 7): 7.15 log10 CFU sputum
- P. aeruginosa density, mean (SD) (EE, 240 mg QD, Day 14): 6.69 (1.628) log10 CFU sputum
- P. aeruginosa density, median (EE, 240 mg QD, Day 14): 6.46 log10 CFU sputum
- P. aeruginosa density, mean (SD) (EE, 240 mg QD, Day 28): 6.78 (1.896) log10 CFU sputum
- P. aeruginosa density, median (EE, 240 mg QD, Day 28): 7.38 log10 CFU sputum
- Reduction in P. aeruginosa density in sputum (EE, 240 mg QD): approximately 74%
- Largest difference in P. aeruginosa density, placebo vs levofloxacin (EE, Day 7): 1.62 log10 CFU/g sputum
- Largest difference in P. aeruginosa density, placebo vs levofloxacin (EE, Day 14): 1.39 log10 CFU/g sputum
- Largest difference in P. aeruginosa density, placebo vs levofloxacin (EE, Day 28): 1.88 log10 CFU/g sputum
- Change in P. aeruginosa density, mean (SD) [10]: −0.64 (1.833) log10 CFU sputum
- Change in P. aeruginosa density, median [10]: −0.37 log10 CFU sputum
- Change in P. aeruginosa density, mean (SD) [11]: −0.65 (1.898) log10 CFU sputum
- Change in P. aeruginosa density, median [11]: −0.46 log10 CFU sputum
- Change in P. aeruginosa density, mean (SD) [12]: −0.55 (1.645) log10 CFU sputum
- Change in P. aeruginosa density, median [12]: −0.58 log10 CFU sputum
- P. aeruginosa density, mean (SD) [13]: 7.21 (1.508) log10 CFU sputum
- P. aeruginosa density, median [13]: 7.90 log10 CFU sputum
- P. aeruginosa density, mean (SD) [14]: 6.59 (1.838) log10 CFU sputum
- P. aeruginosa density, median [14]: 6.77 log10 CFU sputum
- P. aeruginosa density, mean (SD) [15]: 6.56 (1.669) log10 CFU sputum
- P. aeruginosa density, median [15]: 6.78 log10 CFU sputum
- P. aeruginosa density, mean (SD) [16]: 6.72 (1.683) log10 CFU sputum
- P. aeruginosa density, median [16]: 6.90 log10 CFU sputum
- Change in P. aeruginosa density, mean [17]: −0.70 log10 CTU/g sputum
- Change in P. aeruginosa density, median [17]: −0.53 log10 CTU/g sputum
- Change in P. aeruginosa density, mean [18]: −0.07 log10 CTU/g sputum
- Change in P. aeruginosa density, median [18]: 0.00 log10 CTU/g sputum
- Change in P. aeruginosa density, mean [19]: −0.27 log10 CTU/g sputum
- Change in P. aeruginosa density, median [19]: −0.20 log10 CTU/g sputum
- P. aeruginosa density, mean (MITT, 120 mg QD, Day 1): 7.43 log10 CTU/g sputum
- P. aeruginosa density, median (MITT, 120 mg QD, Day 1): 8.16 log10 CTU/g sputum
- P. aeruginosa density, mean (MITT, 120 mg QD, Day 7): 6.68 log10 CTU/g sputum
- P. aeruginosa density, median (MITT, 120 mg QD, Day 7): 6.98 log10 CTU/g sputum
- P. aeruginosa density, mean (MITT, 120 mg QD, Day 14): 7.33 log10 CTU/g sputum
